“Also recorded” adds a separate entry of the source.
Columns and labels:
[1] = Serum gallium levels, acute arthritis studies; format: in vivo, rat; conditions: for Mean Serum Gallium Concentration: 14 days, 1 hour post-dosing
Description: Materials and methods: For the adjuvant-induced acute arthritis model, male Lewis rats (7 per group for Gallium Maltolate, 4 per group for normal controls and dexamethasone-treated controls) were injected with 100 μl of Freund's complete adjuvant/lipoidal amine (FCA/LA) subcutaneously at the base of the tail on study day 0 under anesthesia. The rapid onset (within 7 days) of arthritic symptoms in this model includes ankle inflammation, bone resorption, and mild cartilage destruction. […] The dexamethasone-treated control animals were administered a daily oral dose of dexamethasone (0.1 mg/kg). Body weights were measured regularly during the course of the study to track the effect of the drugs on the weight loss induced by the developing adjuvant disease, and dose volumes were adjusted accordingly. Prior to the onset of swelling, but after the establishment of systemic disease (about 7 days after adjuvant injection), caliper measurements were made of ankle joints. Ankles were measured every day until 14 days post-adjuvant injection when the rats were anesthetized and euthanized. Serum was harvested one hour after final dosing for gallium quantitation. Hind paws, liver and spleen were weighed, fixed and processed for histopathologic evaluation. Adjuvant arthritic ankles were given scores of 0-5 (0=normal; 5=severe) for inflammation and bone resorption. Splenic changes of inflammation, increased extramedullary hematopoiesis and lymphoid atrophy were scored 0-5 using criteria similar to those used for scoring of inflammation. The primary endpoint is periarticular inflammation and bone resorption as quantitated by ankle caliper measurements and histopathologic evaluation of ankles (scoring of joints). Secondary endpoints include body weight change and the inhibition of splenomegaly and hepatomegaly.
The following data was compiled from the above described model studies. All sampling was done 1 hour post-dosing.

[2] = system: male Lewis rats with streptococcal (PGPS) cell wall induced arthritis; assay: Streptococcal cell wall (PGPS)-induced chronic arthritis model; format: in vivo; conditions: 100, 200 and 300 mg/kg daily oral gavage, 35 days
[3] = system: male Lewis rats with streptococcal (PGPS) cell wall induced arthritis; assay: as above; format: in vivo
Description: (§1) Two preclinical animal models were tested for oral gallium efficacy in inflammatory polyarthritis; adjuvant-induced acute arthritis and streptococcal cell wall-induced chronic arthritis, respectively. Male Lewis rats were used in both studies. The models are described in detail in Bendele et al. (1999) Toxicologic Pathology 27(1):134-142 and Bendele (2001) J. Musculoskel. Neuron. Interact. 1(4):377-385.
This is a multiple reactivated peptidoglycan-polysaccharide (PGPS)-induced arthritis model. The rapid onset (4-5 days) of arthritic symptoms in this model includes ankle inflammation, bone resorption, mild cartilage destruction.
(§2) Materials and methods: Male Lewis rats (N=12/group) with developing streptococcal (PGPS) cell wall induced arthritis were treated with gallium maltolate (100, 200 or 300 mg/kg, po, qd) or Cyclosporin A (CSA, 5-20 mg/kg) prophylactically beginning 1 day after intra-articular injection of PGPS into the ankles (day −14) and continued for 14 days at which time systemic reactivation was induced by intravenous (iv) injection of PGPS (day 0). Treatment was continued for another 14 days and animals were reactivated a second time (day 14). Following an additional week of treatment, rats were terminated for a total of […] of dosing. Rats were weighed on days (−)13, (−)7, 0, 8, 14 and 21, at which time, dose volumes were adjusted. Right ankle caliper measurements were taken on days 0, 2, 4, 6, 8, 10, 12, 14, 16, 18, 20 and 21. […] All rats had terminal blood samples obtained for PK sampling. Scoring of Joints: PGPS arthritic ankles are given scores of 0-5 (normal to severe) for inflammation, pannus, cartilage damage, bone resorption and periosteal bone proliferation according criteria similar to the acute arthritis study. The primary endpoint is periarticular inflammation and bone resorption as quantitated by ankle caliper measurements and histopathologic evaluation of ankles (scoring of joints).

[4] = system: male Lewis rats with adjuvant-induced acute arthritis; assay: Adjuvant-induced acute arthritis model; format: in vivo
Description: as §1
Materials and methods: For the adjuvant-induced acute arthritis model, male Lewis rats (7 per group for Gallium Maltolate, 4 per group for normal controls and dexamethasone-treated controls) were injected with 100 μl of Freund's complete adjuvant/lipoidal amine (FCA/LA) subcutaneously at the base of the tail on study day 0 under anesthesia. The rapid onset (within 7 days) of arthritic symptoms in this model includes ankle inflammation, bone resorption, and mild cartilage destruction. Prophylactic treatment was initiated by dosing with control vehicle or Gallium Maltolate (100 or 300 mg/kg) by daily oral gavage, from seven days prior to adjuvant injection until termination. The dexamethasone-treated control animals were administered a daily oral dose of dexamethasone (0.1 mg/kg). Body weights were measured regularly during the course of the study to track the effect of the drugs on the weight loss induced by the developing adjuvant disease, and dose volumes were adjusted accordingly. Prior to the onset of swelling, but after the establishment of systemic disease (about 7 days after adjuvant injection), caliper measurements were made of ankle joints. Ankles were measured every day until 14 days post-adjuvant injection when the rats were anesthetized and euthanized. Serum was harvested one hour after final dosing for gallium quantitation. Hind paws, liver and spleen were weighed, fixed and processed for histopathologic evaluation. Adjuvant arthritic ankles were given scores of 0-5 (0=normal; 5=severe) for inflammation and bone resorption. Splenic changes of inflammation, increased extramedullary hematopoiesis and lymphoid atrophy were scored 0-5 using criteria similar to those used for scoring of inflammation. The primary endpoint is periarticular inflammation and bone resorption as quantitated by ankle caliper measurements and histopathologic evaluation of ankles (scoring of joints). Secondary endpoints include body weight change and the inhibition of splenomegaly and hepatomegaly.

[5] = Serum gallium levels, chronic arthritis study; format: in vivo, rat; conditions: Study PG-PS/TT-1, 100 mg/kg, 1% MC suspension, 35 days, pretreatment 13 days, fasted, 1 hour post-dosing
Description: as §2
The following data was compiled from the above described model studies. […]

[6] = 100 or 300 mg/kg daily oral gavage, both doses

Cc1occc(=O)c1[O-].Cc1occc(=O)c1[O-].Cc1occc(=O)c1[O-].[Ga+3] [gallium maltolate, tris(3-hydroxy-2-methyl-4H-pyran-4-onato) gallium]
serum gallium levels attained ([1]; 100 or 300 mg/kg daily oral gavage): dose-dependent
Mean Serum Gallium Concentration ([1]; Study LATT-1, 100 mg/kg, solution, pretreatment 1 day, not fasted): 652 ng/mL
Mean Serum Gallium Concentration ([1]; Study LATT-2, 100 mg/kg, 1% MC suspension, pretreatment 1 day, fasted): 1350 ng/mL
Mean Serum Gallium Concentration ([1]; Study LATT-2, 300 mg/kg, 1% MC suspension, pretreatment 1 day, fasted): 3470 ng/mL
Mean Serum Gallium Concentration ([1]; Study LATT-2, 300 mg/kg, 1% MC suspension, pretreatment 7 days, fasted): 2960 ng/mL
safety / signs of toxicity [2]: safe and showed no signs of toxicity; also recorded: safe with no signs of toxicity
inflammation after the first reactivation of arthritis on day 0 ([3]; 300 mg/kg oral): slight inhibition
ankle swelling, first reactivation ([3]; 300 mg/kg, day 12): reduced the swelling significantly
bone resorption ([3]; 100, 200 or 300 mg/kg po qd): Significant dose dependent anti-inflammatory effects
cartilage (damage) ([3]; 100, 200 or 300 mg/kg po qd): Significant dose dependent anti-inflammatory effects
histological inflammation scores ([3]; 100, 200 or 300 mg/kg po qd): dose-related inhibition
pannus ([3]; 100, 200 or 300 mg/kg po qd): dose-related effect; also recorded: Significant dose dependent anti-inflammatory effects
periosteal proliferation ([3]; 100, 200 or 300 mg/kg po qd): dose-related effect; also recorded: Significant dose dependent anti-inflammatory effects
paw weights after the second reactivation ([3]; 100, 200 or 300 mg/kg po qd, all treated groups): decreased
inhibition of the sum of the scores for inflammation, pannus, cartilage damage and bone damage (joint histopathology) ([3]; 100, 200 or 300 mg/kg po qd, dose responsive): 20-45%
ankle swelling after the second reactivation (flare-up, day 14) ([3]; gallium maltolate 100, 200 or 300 mg/kg po qd, Cyclosporin A 5-20 mg/kg): decreased ankle swelling
peak effect on ankle swelling, time after the flare-up ([3]; second reactivation on day 14): ≤ 6 days
start of decreased ankle swelling after the flare-up ([3]; second reactivation on day 14): ≤ 2 days
safety / signs of toxicity ([4]; 100 or 300 mg/kg daily oral gavage in 1% methyl cellulose, 14 days, Lewis rats): safe and showed no signs of toxicity; also recorded: safe with no signs of toxicity
bone resorption scores [4, 6]: significant reduction
liver and spleen hypertrophy (weights) [4, 6]: dose-related decrease; also recorded: marked reduction
effect on body weight (arthritis-induced body weight loss) ([4]; gallium maltolate 100 or 300 mg/kg, dexamethasone 0.1 mg/kg, daily oral): favorable effect
ankle (joint) inflammation, clinical and histological ([4]; gallium maltolate 100 or 300 mg/kg, dexamethasone 0.1 mg/kg, daily oral, vs disease control): reduced ankle inflammation; also recorded: significant reduction; also recorded: Significant dose dependent protection
spleen histopathology: atrophy of the lymphoid tissue ([4]; oral gallium maltolate): prevented atrophy
spleen histopathology: inflammation in the spleen ([4]; oral gallium maltolate): significantly reduced inflammation
Mean Serum Gallium Concentration [5]: 2050 ng/mL

From patent US20050220895A1, “Use of gallium to treat inflammatory arthritis” (priority 2003, published 2005)
